From article PMC6005341, “Identification of “sarsasapogenin-aglyconed” timosaponins as novel Aβ-lowering modulators of amyloid precursor protein processing” (Chemical Science, 2016)

Tested on: γ-secretase-mediated cleavage of Notch1
Assay: Notch cleavage by γ-secretase in N2A-APPswe cells transfected with NotchΔE (immunoblot)
Assay type: cell-based
Conditions: 18 h
Method: rabbit antibody (Millipore). The immunoreactivities were detected using enhanced chemiluminescence reagents (GE Health care).
For examination of notch cleavage by γ-secretase, N2A-APPswe cells were transfected with myc-tagged NotchΔE construct (pSC2 EMV-6MT, provided by Prof. Raphael Kopan, Washington University, St. Louis, MO) using Fugene HD (Roche). Cells were then treated with timosaponins for 18 h and the expression of NotchΔE and NICD were examined by immunoblot analysis using myc-tagged antibodies.
Aβ ELISA: Aβ concentrations in conditioned medium were assayed using ELISA kits for human Aβ40, human Aβ42 (ultrasensitive) (Invitrogen), human Aβ38 (MyBioSource) (in N2A-APPswe cells) or Wako High Sensitive Aβx-42 ELISA kit (in Rat primary cortical neuron culture). The viability of the N2A-APPswe and Primary cortical neurons were determined by MTT and LDH release assays, respectively. No significant effect of viability of the neuron […]
β-Secretase assays: Confluent N2A-APPswe cells were harvested and homogenized with 50 mM MES, pH5.5. […] The β-secretase activities were assayed by adding 10 µM fluorogenic β-secretase substrate (Millipore) to the reaction mixtures and the fluorescence (excitation, 380; emission, 460) were measured. β-Secretase assays were also performed using purified BACE1 (Millipore) at 100 ng in a buffer containing 50 mM MES, pH 5.5. […]

With `C[C@H](NC(=O)Cc1cc(F)cc(F)c1)C(=O)N[C@H](C(=O)OC(C)(C)C)c1ccccc1` [DAPT] the “production of NICD” value was “completely blocked”.
